Reference: patent publication US10525070B2, “Method of treating heart failure” (priority 2015, dated 2020)
“And” between values parts separate entries of the source, which are not always exact repeats. Equal entries are not always repeated. “Also recorded” adds a separate entry of the source.

How the values were obtained:
Assay type in all cases: in vivo
[1] = tested on: Tfr1^hrt/hrt mice; assay: NR rescue experiment, survival of Tfr1^hrt/hrt mice
From the text: 129/SvEv mice bearing a floxed Tfrc allele were crossed with transgenic C57BL/6 mice expressing Cre recombinase under the control of the a-MyHC promoter. Backcrossing was with 129/SvEv mice for more than 10 generations and after the initial phenotypic characterization, all studies used mice with a homogeneous 129/SvEv background. Animals were genotyped by polymerase chain reaction (PCR) using genomic DNA from toe clips. Primers for Tfrc alleles, Cre, Hjv alleles, and Rosa26 are described in Table 1.
One-way ANOVA was performed for comparisons between two means, including when the comparison was between the means of WT and Tfr1^hrt/hrt. Survival analysis was performed using Logrank in Graphpad software. P<0.05 was considered statistically significant.
An independent statistical analysis for survival analysis was also performed as described below.
(§1) Survival time was modeled as follows: Tij=μ+Bj+sij
(§2) Where Tij was the survival time (in days) for the i-th mouse in the j-th group. The model explained this in terms of a baseline mean m, an effect bj for the j-th group (relative to baseline) and inter-mouse variation eij. The model was fit using ordinary least squares (1-way ANOVA).
(§3) For the NR rescue experiment, the baseline was Tfr1^hrt/hrt with PBS. There was no significant improvement in mean survival when using just Tfr1^hrt/hrt (0.625 days, p-value=0.26, Table 3). There was, however, a significant improvement in the Tfr1^hrt/hrt with NR group (2.29 days, p-value<0.001). For statistical calculations, lifespan was over 19.6 days for wild-type mice.

[2] = tested on: WT mice; assay: NR rescue experiment, survival of WT mice with NR; details: baseline Tfr1^hrt/hrt with PBS, for calculations lifespan was over 19.6 days for wild-type mice
From the text: as §1, §2, §3

[3] = tested on: hearts from Tfr1^hrt/hrt mice; assay: UPR^MT mRNA levels in hearts of NR-treated mice (real-time PCR); details: P10 hearts, NR treated vs untreated, FIGS. 19A and 19B
Procedure: Total heart RNA was isolated from flash-frozen tissue using the RNeasy Fibrous Tissue Mini Kit (Qiagen) and reverse transcribed as described in Schmidt et al. (2008) Cell Metab. […] For the microarray analysis, the Affymetrix GeneChip® Mouse Genome 430 2.0 Array was used. A minimum of 200 ng RNA was used for each sample. RNA samples were processed by the Duke Microarray Shared Resource Services. Transcript abundance was quantified by 2-step real-time PCR, using amplification conditions as described in Schmidt et al. (2008) Cell Metab. […] Primers are summarized in Table 2 and Rpl19 was used as an internal control.

[4] = tested on: hearts from Tfr1^hrt/hrt mice; assay: p62 protein levels in hearts of NR-treated mice; details: NR treated vs untreated, FIGS. 20A and 20B
From the text: Atg9A (Novus Biologicals).

[5] = tested on: Tfr1^hrt/hrt mice; assay: NAD/NADH ratios in tissue with and without NR treatment; details: measurements from tissue

NC(=O)c1ccc[n+]([C@@H]2O[C@H](CO)[C@@H](O)[C@H]2O)c1 [NR, nicotinamide riboside]
Extension of lifespan ([1]; Tfr1^hrt/hrt mice, NR administration, FIG. 7E): up to 5 days
Prolongation of lifespans ([1]; Tfr1^hrt/hrt mice, NR vs vehicle, FIG. 7E): up to 50%
Effect: improvement in mean survival relative to baseline ([1]; Tfr1^hrt/hrt with NR, 750 mg/kg IP daily from P5, baseline Tfr1^hrt/hrt with PBS (10.375), 1-way ANOVA model, p<0.001, 750 mg/kg): 2.29 days and 2.292 days
Lifespan of treated mice (in words) ([1]; in the absence of iron therapy): increased the lifespan
Effect: survival relative to baseline [2]: 19.625 days
Expression of UPR^MT mRNAs (Atf4, Lonp1, Ddit3, Fgf21) in heart [3]: decreased expression; also recorded: blunted
Accumulation of p62 in the hearts [4]: alleviated the accumulation
NAD/NADH ratios [5]: inconclusive
